biological target: human Nav1.8 (Homo sapiens (Human), UniProt Q9Y5Y9); assay: E-VIPR optical membrane potential assay with electrical stimulation; type: cell-based; details: HEK cells expressing human Nav1.8
Excerpt: Assays for Detecting and Measuring NaV Inhibition Properties of Compounds E-VIPR Optical Membrane Potential Assay Method with Electrical Stimulation
Sodium channels are voltage-dependent proteins that can be activated by inducing membrane voltage changes by applying electric fields. The electrical stimulation instrument and methods of use are described in Ion Channel Assay Methods PCT/US01/21652, herein incorporated by reference and are referred to as E-VIPR. The instrument comprises a microtiter plate handler, an optical system for exciting the coumarin dye while simultaneously recording the coumarin and oxonol emissions, a waveform generator, a current- or voltage-controlled amplifier, and a device for inserting electrodes in well. Under integrated computer control, this instrument passes user-programmed electrical stimulus protocols to cells within the wells of the microtiter plate.
24 hours before the assay on E-VIPR, HEK cells expressing human Nav1.8 were seeded in 384-well poly-lysine coated plates at 15,000-20,000 cells per well. HEK cells were grown in media (exact composition is specific to each cell type and NaV subtype) supplemented with 10% FBS (Fetal Bovine Serum, qualified; GibcoBRL #16140-071) and 1% Pen-Strep (Penicillin-Streptomycin; GibcoBRL #15140-122). Cells were grown in vented cap flasks, in 90% humidity and 5% CO2.
100 mg/mL Pluronic F-127 (Sigma #P2443), in dry DMSO
Compound Plates: 384-well round bottom plate, e.g. Corning 384-well Polypropylene Round Bottom #3656
Cell Plates: 384-well tissue culture treated plate, e.g. Greiner #781091-1B
Bath1 buffer: Glucose 10 mM (1.8 g/L), Magnesium Chloride (Anhydrous), 1 mM (0.095 g/L), Calcium Chloride, 2 mM (0.222 g/L), HEPES 10 mM (2.38 g/L), Potassium Chloride, 4.5 mM (0.335 g/L), Sodium Chloride 160 mM (9.35 g/L).
Hexyl Dye Solution: Bath1 Buffer+0.5% β-cyclodextrin (make this prior to use, Sigma #C4767), 8 μM CC2-DMPE+2.5 μM DiSBAC6(3). To make the solution added volume of 10% Pluronic F127 stock equal to volumes of CC2-DMPE+DiSBAC6(3). The order of preparation was first mix Pluronic and CC2-DMPE, then added DiSBAC6(3) while vortexing, then added Bath1+β-Cyclodextrin.
1) Pre-spotted compounds (in neat DMSO) into compound plates. Vehicle control (neat DMSO), the positive control (20 mM DMSO stock tetracaine, 125 μM final in assay) and test compounds were added to each well at 160× desired final concentration in neat DMSO. Final compound plate volume was 80 μL (80-fold intermediate dilution from 1 μL DMSO spot; 160-fold final dilution after transfer to cell plate). Final DMSO concentration for all wells in assay was 0.625%.
2) Prepared Hexyl Dye Solution.
3) Prepared cell plates. On the day of the assay, medium was aspirated and cells were washed three times with 100 μL of Bath1 Solution, maintaining 25 μL residual volume in each well.
4) Dispensed 25 μL per well of Hexyl Dye Solution into cell plates. Incubated for 20-35 minutes at room temp or ambient conditions.
5) Dispensed 80 μL per well of Bath1 into compound plates. Acid Yellow-17 (1 mM) was added and Potassium Chloride was altered from 4.5 to 20 mM depending on the NaV subtype and assay sensitivity.
6) Washed cell plates three times with 100 μL per well of Bath1, leaving 25 μL of residual volume. Then transfered 25 uL per well from Compound Plates to Cell Plates. Incubated for 20-35 minutes at room temp/ambient condition.
7) Read Plate on E-VIPR. Used the current-controlled amplifier to deliver stimulation wave pulses for 10 seconds and a scan rate of 200 Hz. A pre-stimulus recording was performed for 0.5 seconds to obtain the un-stimulated intensities baseline. The stimulatory waveform was followed by 0.5 seconds of post-stimulation recording to examine the relaxation to the resting state.
Data was analyzed and reported as normalized ratios of emission intensities measured in the 460 nm and 580 nm channels. The response as a function of time was reported as the ratios obtained using the following formula: […]

Chain of human Nav1.8 (Q9Y5Y9 whole entry): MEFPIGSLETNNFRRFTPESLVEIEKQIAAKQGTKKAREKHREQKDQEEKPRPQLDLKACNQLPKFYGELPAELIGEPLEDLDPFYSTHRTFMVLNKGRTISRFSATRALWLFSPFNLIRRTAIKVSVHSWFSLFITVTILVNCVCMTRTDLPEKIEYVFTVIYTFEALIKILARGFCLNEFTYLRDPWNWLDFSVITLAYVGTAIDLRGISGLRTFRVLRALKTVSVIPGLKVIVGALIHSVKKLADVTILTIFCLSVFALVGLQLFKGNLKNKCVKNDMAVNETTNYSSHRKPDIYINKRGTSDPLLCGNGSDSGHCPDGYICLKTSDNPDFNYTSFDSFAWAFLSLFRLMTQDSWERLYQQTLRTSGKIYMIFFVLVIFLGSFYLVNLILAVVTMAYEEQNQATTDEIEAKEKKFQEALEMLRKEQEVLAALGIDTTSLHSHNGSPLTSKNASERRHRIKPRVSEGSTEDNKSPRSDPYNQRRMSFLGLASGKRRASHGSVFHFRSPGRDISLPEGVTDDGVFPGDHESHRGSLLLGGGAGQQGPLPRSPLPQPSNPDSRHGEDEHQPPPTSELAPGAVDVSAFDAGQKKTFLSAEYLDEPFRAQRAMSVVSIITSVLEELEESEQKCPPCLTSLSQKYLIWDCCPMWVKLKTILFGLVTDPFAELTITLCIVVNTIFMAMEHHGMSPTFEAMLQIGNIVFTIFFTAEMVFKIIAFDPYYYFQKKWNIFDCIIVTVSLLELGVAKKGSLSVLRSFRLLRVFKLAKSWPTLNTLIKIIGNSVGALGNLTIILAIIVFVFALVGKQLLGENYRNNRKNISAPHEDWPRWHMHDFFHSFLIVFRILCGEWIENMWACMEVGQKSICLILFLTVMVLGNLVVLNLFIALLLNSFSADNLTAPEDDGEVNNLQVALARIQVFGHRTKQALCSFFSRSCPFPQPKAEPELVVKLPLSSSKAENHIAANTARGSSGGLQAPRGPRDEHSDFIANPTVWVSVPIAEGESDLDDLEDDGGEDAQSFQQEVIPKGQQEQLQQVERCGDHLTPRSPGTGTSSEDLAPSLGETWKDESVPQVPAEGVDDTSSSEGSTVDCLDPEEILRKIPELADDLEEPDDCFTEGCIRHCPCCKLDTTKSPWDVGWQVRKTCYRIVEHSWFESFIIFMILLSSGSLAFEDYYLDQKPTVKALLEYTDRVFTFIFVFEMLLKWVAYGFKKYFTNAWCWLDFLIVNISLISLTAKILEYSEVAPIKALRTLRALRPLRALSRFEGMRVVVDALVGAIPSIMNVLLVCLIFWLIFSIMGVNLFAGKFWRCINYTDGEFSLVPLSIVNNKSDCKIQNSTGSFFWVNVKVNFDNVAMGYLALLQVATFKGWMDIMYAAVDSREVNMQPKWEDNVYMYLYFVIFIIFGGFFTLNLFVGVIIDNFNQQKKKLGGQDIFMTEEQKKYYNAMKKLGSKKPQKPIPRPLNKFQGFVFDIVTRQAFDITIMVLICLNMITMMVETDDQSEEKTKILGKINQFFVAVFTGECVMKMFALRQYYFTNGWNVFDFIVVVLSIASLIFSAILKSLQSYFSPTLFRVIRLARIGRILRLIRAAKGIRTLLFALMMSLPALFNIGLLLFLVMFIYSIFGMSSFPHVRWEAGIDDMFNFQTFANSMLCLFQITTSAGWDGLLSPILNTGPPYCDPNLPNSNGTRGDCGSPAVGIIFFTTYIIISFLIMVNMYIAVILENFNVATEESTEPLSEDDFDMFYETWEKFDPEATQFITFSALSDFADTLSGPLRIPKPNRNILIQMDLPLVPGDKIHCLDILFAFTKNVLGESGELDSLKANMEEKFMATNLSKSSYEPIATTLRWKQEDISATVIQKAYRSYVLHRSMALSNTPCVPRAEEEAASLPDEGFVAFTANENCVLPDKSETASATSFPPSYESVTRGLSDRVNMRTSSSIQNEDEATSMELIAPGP

Structure (SMILES)	IC50
COc1ccc(Oc2cc(Cl)c(Cl)cc2C(=O)Nc2ccc(C(=O)O)nc2)c(F)c1 [Compound 34, 5-(4,5-dichloro-2-(2-fluoro-4-methoxyphenoxy)benzamido)picolinic acid]	52 nM
O=C(O)c1ccc(NC(=O)c2cc(Cl)c(Cl)cc2Oc2ccc(OCC(F)(F)F)cc2)cn1 [Compound 35, 5-(4,5-dichloro-2-(4-(2,2,2-trifluoroethoxy)phenoxy)benzamido)picolinic acid]	50 nM
COc1cc(Cl)ccc1Oc1cc(Cl)c(Cl)cc1C(=O)Nc1ccc(C(=O)O)nc1 [Compound 36, 5-(4,5-dichloro-2-(4-chloro-2-methoxyphenoxy)benzamido)picolinic acid]	39 nM
O=C(O)c1ccc(NC(=O)c2cc(Cl)c(Cl)cc2Oc2ccccc2OC(F)F)cn1 [Compound 37, 5-(4,5-dichloro-2-(2-(difluoromethoxy)phenoxy)benzamido)picolinic acid]	46 nM
Cc1cc(Cl)ccc1Oc1cc(Cl)c(Cl)cc1C(=O)Nc1ccc(C(=O)O)nc1 [Compound 38, 5-(4,5-dichloro-2-(4-chloro-2-methylphenoxy)benzamido)picolinic acid]	74 nM
COc1ccc(Oc2cc(Cl)c(Cl)cc2C(=O)Nc2ccc(C(=O)O)nc2)c(OC)c1 [Compound 39, 5-(4,5-dichloro-2-(2,4-dimethoxyphenoxy)benzamido)picolinic acid]	15 nM
COc1ccc(Oc2cc(Cl)c(Cl)cc2C(=O)Nc2ccc(C(=O)O)nc2)cc1F [Compound 40, 5-(4,5-dichloro-2-(3-fluoro-4-methoxyphenoxy)benzamido)picolinic acid]	34 nM
O=C(O)c1ccc(NC(=O)c2cc(Cl)c(Cl)cc2Oc2ccc(F)cc2Cl)cn1 [Compound 41, 5-(4,5-dichloro-2-(2-chloro-4-fluorophenoxy)benzamido)picolinic acid]	12 nM
O=C(O)c1ccc(NC(=O)c2cc(Cl)c(Cl)cc2Oc2ccc(F)cc2F)cn1 [Compound 42, 5-(4,5-dichloro-2-(2,4-difluorophenoxy)benzamido)picolinic acid]	31 nM
COc1ccc(Oc2cc(Cl)c(Cl)cc2C(=O)Nc2ccc(C(=O)O)nc2)c(Cl)c1 [Compound 43, 5-(4,5-dichloro-2-(2-chloro-4-methoxyphenoxy)benzamido)picolinic acid]	65 nM
O=C(O)c1ccc(NC(=O)c2cc(Cl)c(Cl)cc2Oc2ccc(OC(F)(F)F)cc2)cn1 [Compound 44, 5-(4,5-dichloro-2-(4-(trifluoromethoxy)phenoxy)benzamido)picolinic acid]	20 nM
COc1ccccc1Oc1cc(C(F)(F)F)cc(C(F)(F)F)c1C(=O)Nc1ccc(C(=O)O)nc1 [Compound 45, 5-(2-(2-methoxyphenoxy)-4,6-bis(trifluoromethyl)benzamido)picolinic acid]	64 nM
COc1ccc(Oc2cc(C(F)(F)F)cc(C(F)(F)F)c2C(=O)Nc2ccc(C(=O)O)nc2)cc1 [Compound 46, 5-(2-(4-methoxyphenoxy)-4,6-bis(trifluoromethyl)benzamido)picolinic acid]	66 nM
Cc1cc(F)ccc1Oc1cc(C(F)(F)F)cc(C(F)(F)F)c1C(=O)Nc1ccc(C(=O)O)nc1 [Compound 47, 5-(2-(4-fluoro-2-methylphenoxy)-4,6-bis(trifluoromethyl)benzamido)picolinic acid]	42 nM
COc1cc(F)ccc1Oc1cc(C(F)(F)F)cc(C(F)(F)F)c1C(=O)Nc1ccc(C(=O)O)nc1 [Compound 48, 5-(2-(4-fluoro-2-methoxyphenoxy)-4,6-bis(trifluoromethyl)benzamido)picolinic acid]	14 nM
COc1ccc(Oc2cc(C(F)(F)F)cc(C(F)(F)F)c2C(=O)Nc2ccc(C(=O)O)nc2)c(OC)c1 [Compound 49, 5-(2-(2,4-dimethoxyphenoxy)-4,6-bis(trifluoromethyl)benzamido)picolinic acid]	6 nM

Structure (SMILES)	IC50
O=C(O)c1ccc(NC(=O)c2c(Oc3ccc(F)cc3)cc(C(F)(F)F)cc2C(F)(F)F)cn1 [Compound 50, 5-(2-(4-fluorophenoxy)-4,6-bis(trifluoromethyl)benzamido)picolinic acid]	130 nM
COc1cc(F)ccc1Oc1cc(Cl)c(Cl)cc1C(=O)Nc1ccc(C(=O)O)nc1 [Compound 51, 5-(4,5-dichloro-2-(4-fluoro-2-methoxyphenoxy)benzamido)picolinic acid]	9 nM
COc1cc(F)ccc1Oc1cc(C(C)(C)C)ccc1C(=O)Nc1ccc(C(=O)O)nc1 [Compound 52, 5-(4-(tert-butyl)-2-(4-fluoro-2-methoxyphenoxy)benzamido)picolinic acid]	31 nM
Cc1cc(F)ccc1Oc1cc(C(C)(C)C)ccc1C(=O)Nc1ccc(C(=O)O)nc1 [Compound 53, 5-(4-(tert-butyl)-2-(4-fluoro-2-methylphenoxy)benzamido)picolinic acid]	46 nM
CC(C)(C)c1ccc(C(=O)Nc2ccc(C(=O)O)nc2)c(Oc2ccc(F)cc2)c1 [Compound 54, 5-(4-(tert-butyl)-2-(4-fluorophenoxy)benzamido)picolinic acid]	180 nM
O=C(O)c1ccc(NC(=O)c2ccccc2Oc2ccc(F)cc2)cn1 [Compound 55, 5-(2-(4-fluorophenoxy)benzamido)picolinic acid]	4350 nM
O=C(O)c1ccc(NC(=O)c2ccc(C(F)(F)F)cc2Oc2ccc(F)cc2)cn1 [Compound 56, 5-(2-(4-fluorophenoxy)-4-(trifluoromethyl)benzamido)picolinic acid]	250 nM
COc1cc(F)ccc1Oc1ccc(C(F)(F)F)cc1C(=O)Nc1ccc(C(=O)O)nc1 [Compound 57, 5-(2-(4-fluoro-2-methoxyphenoxy)-5-(trifluoromethyl)benzamido)picolinic acid]	96 nM
O=C(O)c1ccc(NC(=O)c2cc(C(F)(F)F)ccc2Oc2ccc(F)cc2Cl)cn1 [Compound 58, 5-(2-(2-chloro-4-fluorophenoxy)-5-(trifluoromethyl)benzamido)picolinic acid]	80 nM
COc1ccc(F)cc1Oc1ccc(C(F)(F)F)cc1C(=O)Nc1ccc(C(=O)O)nc1 [Compound 59, 5-(2-(5-fluoro-2-methoxyphenoxy)-5-(trifluoromethyl)benzamido)picolinic acid]	740 nM
O=C(O)c1ccc(NC(=O)c2cc(C(F)(F)F)ccc2Oc2ccccc2OC(F)F)cn1 [Compound 60, 5-(2-(2-(difluoromethoxy)phenoxy)-5-(trifluoromethyl)benzamido)picolinic acid]	650 nM
Cc1cc(Cl)ccc1Oc1ccc(C(F)(F)F)cc1C(=O)Nc1ccc(C(=O)O)nc1 [Compound 61, 5-(2-(4-chloro-2-methylphenoxy)-5-(trifluoromethyl)benzamido)picolinic acid]	145 nM
COc1ccccc1Oc1ccc(C(F)(F)F)cc1C(=O)Nc1ccc(C(=O)O)nc1 [Compound 62, 5-(2-(2-methoxyphenoxy)-5-(trifluoromethyl)benzamido)picolinic acid]	370 nM
O=C(O)c1ccc(NC(=O)c2cc(C(F)(F)F)ccc2Oc2ccccc2Cl)cn1 [Compound 63, 5-(2-(2-chlorophenoxy)-5-(trifluoromethyl)benzamido)picolinic acid]	430 nM
CC(C)Oc1ccccc1Oc1ccc(C(F)(F)F)cc1C(=O)Nc1ccc(C(=O)O)nc1 [Compound 64, 5-(2-(2-isopropoxyphenoxy)-5-(trifluoromethyl)benzamido)picolinic acid]	755 nM
COc1ccc(Oc2ccc(C(F)(F)F)cc2C(=O)Nc2ccc(C(=O)O)nc2)c(OC)c1 [Compound 65, 5-(2-(2,4-dimethoxyphenoxy)-5-(trifluoromethyl)benzamido)picolinic acid]	39 nM

Reference: patent publication US9108903B2, “Amides as modulators of sodium channels” (VERTEX PHARMACEUTICALS INCORPORATED, priority 2013, dated 2015)
